From BindingDB's records for doi:10.7270/Q2C24TWT (Burnham Center For Chemical Genomics, 2010)

Molecular target: G-protein coupled receptor 35 (Homo sapiens, UniProt Q9HC97)
Assay: inhibitors of PMA/ionomycin-induced NF-kB reporter, SAR follow-up, cell-based, PMA/ionomycin inducer, luciferase, set 2 (AID 2792)

Sequence of G-protein coupled receptor 35 (Q9HC97 whole entry): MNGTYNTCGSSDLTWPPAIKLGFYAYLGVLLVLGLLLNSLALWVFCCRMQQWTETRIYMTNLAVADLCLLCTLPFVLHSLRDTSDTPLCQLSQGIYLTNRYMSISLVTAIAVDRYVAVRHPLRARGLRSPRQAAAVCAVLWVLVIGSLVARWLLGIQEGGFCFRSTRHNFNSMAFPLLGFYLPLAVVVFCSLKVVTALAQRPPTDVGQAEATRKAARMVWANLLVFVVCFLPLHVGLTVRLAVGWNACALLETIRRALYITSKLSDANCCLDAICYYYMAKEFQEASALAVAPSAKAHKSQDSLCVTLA

Row | Structure (SMILES) | IC50 [µM]
1 | CCCn1c(SCC(=O)Nc2nc3c(s2)CCCC3)nc2c1c(=O)n(C)c(=O)n2C [2-(1,3-Dimethyl-2,6-dioxo-7-propyl-2,3,6,7-tetrahydro-1H-purin-8-ylsulfanyl)-N-(4,5,6,7-tetrahydro-benzothiazol-2-yl)-acetamide] | 17.8
2 | CCCCn1c(CN2CCN(c3cccc(Cl)c3)CC2)nc2c1c(=O)n(C)c(=O)n2C [MLS-0004183.0001] | 3.51
